The values below come from ChEMBL document CHEMBL1201862, “PubChem BioAssay data set” (2004).

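Assay format: 96-well plates, 48-hour exposure. GI50 marks 50% less growth.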 The source made the active and inactive calls. Cut-off read from the data, not from the text of the source: active = GI50 up to about 1.1 µM and inactive = higher.

Among the test systems are 786-0; A498; BT-549; COLO 205; DU-145; HCC 2998; HL-60; HT-29; K562; M14; MDA-MB-435; OVCAR-3; OVCAR-5; PC-3; RPMI-8226; SF-295; SNB-19; UACC-257; UO-31.
What all share (experiment): growth of human tumour cells (NCI), 48 h

As for `Cc1ccc(-c2cn3c(nc4ccccc43)c(-c3ccccc3)n2)cc1`, the GI50 was 15.1 µM (inactive) in the experiment on 786-0; 30.9 µM (inactive) with A498; 32.5 µM (inactive) in the experiment on BT-549; > 100 µM (inactive) in the experiment on COLO 205; > 100 µM (inactive) with DU-145; > 100 µM (inactive) in the experiment on HCC 2998. For the same compound, the GI50 in the experiment with HL-60, in the experiment on HT-29, in the experiment with K562, with M14, in the experiment on MDA-MB-435 and with OVCAR-3 was > 100 µM (inactive) throughout. The GI50 was > 100 µM (inactive) with OVCAR-5; > 100 µM (inactive) in the experiment with PC-3; > 100 µM (inactive) with RPMI-8226; 19.8 µM (inactive) in the experiment on SF-295; 16.7 µM (inactive) in the experiment on SNB-19; > 100 µM (inactive) in the experiment with UACC-257. Moreover, in the experiment with UO-31, the GI50 was > 49.1 µM (inactive).

Regarding `O=C1C(c2c(O)[nH]c3ccc(Br)cc23)=Nc2ccc(Br)cc21`, the GI50 in the experiment with 786-0 was 24 µM (inactive); in the experiment with A498, > 100 µM (inactive); in the experiment with BT-549, 70.6 µM (inactive); in the experiment on COLO 205, > 100 µM (inactive); in the experiment on DU-145, 25.4 µM (inactive); in the experiment with HCC 2998, > 100 µM (inactive). The GI50 is 86.5 µM (inactive) with HL-60; 48.4 µM (inactive) with HT-29; 43.9 µM (inactive) with K562; 97.9 µM (inactive) with M14; 40.7 µM (inactive) in the experiment with MDA-MB-435; > 100 µM (inactive) in the experiment with OVCAR-3. Besides, the GI50 in the experiment with OVCAR-5 is > 100 µM (inactive); in the experiment with PC-3, 51.3 µM (inactive); with RPMI-8226, > 100 µM (inactive); with SF-295 it was > 100 µM (inactive); in the experiment with SNB-19 it was 30.1 µM (inactive); with UACC-257 it was > 100 µM (inactive). The GI50 with UO-31 is > 100 µM (inactive).

Consider `Cn1c(CC(O)c2nc3ccccc3n2C)nc2ccccc21` (stereo not drawn), for which the GI50 in the experiment on 786-0 is > 44.6 µM (inactive); with A498, > 32.9 µM (inactive); in the experiment with BT-549 it was > 34.4 µM (inactive); in the experiment on COLO 205, > 28.4 µM (inactive); with DU-145 it was > 14.6 µM (inactive); with HCC 2998, > 100 µM (inactive). The GI50 in the experiment on HL-60 was 0.413 µM (active); in the experiment with HT-29 it was > 32.8 µM (inactive); with K562, > 9.51 µM (inactive); with M14, > 29.2 µM (inactive); with MDA-MB-435, > 18.5 µM (inactive); in the experiment with OVCAR-3, > 13.1 µM (inactive). For the same compound, the GI50 in the experiment on OVCAR-5 was > 59.7 µM (inactive); in the experiment with PC-3 it was > 29.2 µM (inactive); in the experiment with RPMI-8226, > 11.5 µM (inactive); with SF-295, > 100 µM (inactive); in the experiment on SNB-19, > 36.6 µM (inactive); with UACC-257, > 19.1 µM (inactive). Further, the GI50 in the experiment on UO-31 was > 6.37 µM (inactive).

Turning to `CCCCC1C=Cn2c(=O)oc3c(OC(C)C)c(C)c(O)c1c32` (stereo not drawn), the GI50 was 1.16 µM (inactive) with 786-0; 0.0423 µM (active) in the experiment on A498; 2.17 µM (inactive) in the experiment on BT-549; 3.01 µM (inactive) in the experiment on COLO 205; 0.652 µM (active) in the experiment with DU-145; 2.96 µM (inactive) in the experiment with HCC 2998. Also, the GI50 with HL-60 was 0.46 µM (active); in the experiment with HT-29, 2.7 µM (inactive); in the experiment on K562, 0.91 µM (active); with M14 it was 1.19 µM (inactive); with MDA-MB-435, 1.33 µM (inactive); in the experiment with OVCAR-3 it was 2.75 µM (inactive). Besides, the GI50 with OVCAR-5 was 4.78 µM (inactive); in the experiment on PC-3, 2.43 µM (inactive); in the experiment with RPMI-8226, 1.42 µM (inactive); with SF-295, 0.982 µM (active); in the experiment with SNB-19, 0.323 µM (active); in the experiment on UACC-257 it was 2.44 µM (inactive). The GI50 in the experiment with UO-31 is 0.71 µM (active).

On to `CC(=O)N[C@@H](Cc1ccc(O)cn1)C(=O)NCc1cccc(F)c1`, for which the GI50 in the experiment on 786-0, in the experiment on A498, with BT-549, in the experiment on COLO 205, in the experiment on DU-145 and in the experiment with HCC 2998 was > 100 µM (inactive) throughout. Besides, the GI50 in the experiment with HL-60, in the experiment on HT-29, in the experiment with K562, in the experiment with M14, in the experiment on MDA-MB-435 and in the experiment with OVCAR-3 was > 100 µM (inactive) throughout. Also, the GI50 in the experiment on OVCAR-5, with PC-3, in the experiment on RPMI-8226, in the experiment on SF-295, in the experiment on SNB-19 and with UACC-257 was > 100 µM (inactive) each time. Moreover, the GI50 with UO-31 was > 100 µM (inactive).

As for `CCOC(=O)/C=C(/C(=O)OCC)n1ccc(=O)n(/C(=C/C(=O)OCC)C(=O)OCC)c1=O`, the GI50 was 2.4 µM (inactive) in the experiment with 786-0; 21.8 µM (inactive) with A498; 15.3 µM (inactive) in the experiment on BT-549; 1.95 µM (inactive) with COLO 205; 18.6 µM (inactive) in the experiment on DU-145; 18.4 µM (inactive) in the experiment with HCC 2998. Besides, the GI50 in the experiment on HL-60 was 0.859 µM (active); with HT-29, 7.74 µM (inactive); with K562, 2.99 µM (inactive); in the experiment with M14, 4.98 µM (inactive); with MDA-MB-435, 8.34 µM (inactive); in the experiment on OVCAR-3, 6.19 µM (inactive). Moreover, the GI50 is 17.1 µM (inactive) in the experiment with OVCAR-5; 15 µM (inactive) with PC-3; 2.7 µM (inactive) with RPMI-8226; 25.6 µM (inactive) in the experiment with SF-295; 20.3 µM (inactive) in the experiment on SNB-19; 10.6 µM (inactive) in the experiment with UACC-257. The GI50 in the experiment on UO-31 is 15.5 µM (inactive).

For the compound `O=C(CN(c1ccc(S(=O)(=O)O)cc1)c1ccc(S(=O)(=O)O)cc1)Nn1cnc2ccc(S(=O)(=O)N(c3ccc(S(=O)(=O)O)cc3)c3ccc(S(=O)(=O)O)cc3)cc2c1=O`, the GI50 in the experiment on 786-0, in the experiment with A498, with BT-549, in the experiment with COLO 205, in the experiment on DU-145 and in the experiment with HCC 2998 was > 100 µM (inactive) in each case. Besides, the GI50 in the experiment with HL-60, in the experiment with HT-29, in the experiment on K562, with M14, in the experiment on MDA-MB-435 and in the experiment with OVCAR-3 was > 100 µM (inactive) in each case. For the same compound, the GI50 in the experiment on OVCAR-5, with PC-3, in the experiment with RPMI-8226, in the experiment on SF-295, in the experiment on SNB-19 and in the experiment with UACC-257 was > 100 µM (inactive) in each case. For the same compound, in the experiment on UO-31, the GI50 is > 100 µM (inactive).
